# Measured values from BigSolDB 2.1.
smiles,measurement,setting,value
CC(C)OC(=O)[C@H](C)N[P@](=O)(Oc1ccccc1)Oc1c(F)c(F)c(F)c(F)c1F,solubility (mole fraction),"in acetone, 278.15 K",0.00921
same,solubility (mole fraction),"in acetone, 283.15 K",0.0111
same,solubility (mole fraction),"in acetone, 288.15 K",0.0132
same,solubility (mole fraction),"in acetone, 293.15 K",0.0159
same,solubility (mole fraction),"in acetone, 298.15 K",0.019
same,solubility (mole fraction),"in acetone, 303.15 K",0.0226
same,solubility (mole fraction),"in acetone, 308.15 K",0.0268
same,solubility (mole fraction),"in acetone, 313.15 K",0.0315
same,solubility (mole fraction),"in acetone, 318.15 K",0.0371
same,solubility (mole fraction),"in acetonitrile, 278.15 K",0.00297
same,solubility (mole fraction),"in acetonitrile, 283.15 K",0.0036
same,solubility (mole fraction),"in acetonitrile, 288.15 K",0.00439
same,solubility (mole fraction),"in acetonitrile, 293.15 K",0.00538
same,solubility (mole fraction),"in acetonitrile, 298.15 K",0.00653
same,solubility (mole fraction),"in acetonitrile, 303.15 K",0.00787
same,solubility (mole fraction),"in acetonitrile, 308.15 K",0.00941
same,solubility (mole fraction),"in acetonitrile, 313.15 K",0.0113
same,solubility (mole fraction),"in acetonitrile, 318.15 K",0.0133
same,solubility (mole fraction),"in ethanol, 278.15 K",0.0019
same,solubility (mole fraction),"in ethanol, 283.15 K",0.00234
same,solubility (mole fraction),"in ethanol, 288.15 K",0.00293
same,solubility (mole fraction),"in ethanol, 293.15 K",0.00366
same,solubility (mole fraction),"in ethanol, 298.15 K",0.00451
same,solubility (mole fraction),"in ethanol, 303.15 K",0.00556
same,solubility (mole fraction),"in ethanol, 308.15 K",0.00686
same,solubility (mole fraction),"in ethanol, 313.15 K",0.00836
same,solubility (mole fraction),"in ethanol, 318.15 K",0.0101
same,solubility (mole fraction),"in ethyl acetate, 278.15 K",0.0073
same,solubility (mole fraction),"in ethyl acetate, 283.15 K",0.00889
same,solubility (mole fraction),"in ethyl acetate, 288.15 K",0.0108
same,solubility (mole fraction),"in ethyl acetate, 293.15 K",0.0132
same,solubility (mole fraction),"in ethyl acetate, 298.15 K",0.0157
same,solubility (mole fraction),"in ethyl acetate, 303.15 K",0.0191
same,solubility (mole fraction),"in ethyl acetate, 308.15 K",0.0227
same,solubility (mole fraction),"in ethyl acetate, 313.15 K",0.0269
same,solubility (mole fraction),"in ethyl acetate, 318.15 K",0.032
same,solubility (mole fraction),"in isopropanol, 278.15 K",0.00118
same,solubility (mole fraction),"in isopropanol, 283.15 K",0.00156
same,solubility (mole fraction),"in isopropanol, 288.15 K",0.00204
same,solubility (mole fraction),"in isopropanol, 293.15 K",0.00265
same,solubility (mole fraction),"in isopropanol, 298.15 K",0.00343
same,solubility (mole fraction),"in isopropanol, 303.15 K",0.00431
same,solubility (mole fraction),"in isopropanol, 308.15 K",0.00545
same,solubility (mole fraction),"in isopropanol, 313.15 K",0.00692
same,solubility (mole fraction),"in isopropanol, 318.15 K",0.00875
same,solubility (mole fraction),"in methanol, 278.15 K",0.0023
same,solubility (mole fraction),"in methanol, 283.15 K",0.0028
same,solubility (mole fraction),"in methanol, 288.15 K",0.00347
same,solubility (mole fraction),"in methanol, 293.15 K",0.00423
same,solubility (mole fraction),"in methanol, 298.15 K",0.00519
same,solubility (mole fraction),"in methanol, 303.15 K",0.00632
same,solubility (mole fraction),"in methanol, 308.15 K",0.00766
same,solubility (mole fraction),"in methanol, 313.15 K",0.00927
same,solubility (mole fraction),"in methanol, 318.15 K",0.0111
same,solubility (mole fraction),"in n-butanol, 278.15 K",0.000812
same,solubility (mole fraction),"in n-butanol, 283.15 K",0.0011
same,solubility (mole fraction),"in n-butanol, 288.15 K",0.00152
same,solubility (mole fraction),"in n-butanol, 293.15 K",0.00198
same,solubility (mole fraction),"in n-butanol, 298.15 K",0.00267
same,solubility (mole fraction),"in n-butanol, 303.15 K",0.00348
same,solubility (mole fraction),"in n-butanol, 308.15 K",0.00463
same,solubility (mole fraction),"in n-butanol, 313.15 K",0.00609
same,solubility (mole fraction),"in n-butanol, 318.15 K",0.00789
same,solubility (mole fraction),"in n-propanol, 278.15 K",0.00144
same,solubility (mole fraction),"in n-propanol, 283.15 K",0.00191
same,solubility (mole fraction),"in n-propanol, 288.15 K",0.00246
same,solubility (mole fraction),"in n-propanol, 293.15 K",0.00311
same,solubility (mole fraction),"in n-propanol, 298.15 K",0.0039
same,solubility (mole fraction),"in n-propanol, 303.15 K",0.0049
same,solubility (mole fraction),"in n-propanol, 308.15 K",0.00608
same,solubility (mole fraction),"in n-propanol, 313.15 K",0.00748
same,solubility (mole fraction),"in n-propanol, 318.15 K",0.00927
same,solubility (mole fraction),"in toluene, 278.15 K",0.00381
same,solubility (mole fraction),"in toluene, 283.15 K",0.00469
same,solubility (mole fraction),"in toluene, 288.15 K",0.00572
same,solubility (mole fraction),"in toluene, 293.15 K",0.00696
same,solubility (mole fraction),"in toluene, 298.15 K",0.00848
same,solubility (mole fraction),"in toluene, 303.15 K",0.0103
same,solubility (mole fraction),"in toluene, 308.15 K",0.0125
same,solubility (mole fraction),"in toluene, 313.15 K",0.0151
same,solubility (mole fraction),"in toluene, 318.15 K",0.0181
same,solubility (mole fraction),"in water, 278.15 K",2.39e-05
same,solubility (mole fraction),"in water, 283.15 K",3.23e-05
same,solubility (mole fraction),"in water, 288.15 K",4.42e-05
same,solubility (mole fraction),"in water, 293.15 K",6.06e-05
same,solubility (mole fraction),"in water, 298.15 K",7.96e-05
same,solubility (mole fraction),"in water, 303.15 K",0.000106
same,solubility (mole fraction),"in water, 308.15 K",0.000137
same,solubility (mole fraction),"in water, 313.15 K",0.000182
same,solubility (mole fraction),"in water, 318.15 K",0.000235
